Measured values published in ChEMBL document CHEMBL1201862, “PubChem BioAssay data set” (2004).
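Method: 48-hour compound exposure of cells in 96-well plates, five concentrations, linear interpolation of endpoints. Here, GI50 denotes the concentration required for 50% inhibition of growth.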 Activity calls are given as the source filed them. Rule as the data show it: active = GI50 up to about 1.1 µM and inactive = higher.

Experiments:
Assay in all cases: DTP human tumour cell line panel, 48 h
Malme-3M = system: Malme-3M
K562 = system: K562
OVCAR-5 = system: OVCAR-5
HT-29 = system: HT-29
ACHN = system: ACHN
Hs-578T = system: Hs-578T
OVCAR-8 = system: OVCAR-8
CAKI-1 = system: CAKI-1
MDA-MB-231 = system: MDA-MB-231
EKVX = system: EKVX
SF-539 = system: SF-539
MDA-MB-435 = system: MDA-MB-435
NCI/ADR-RES = system: NCI/ADR-RES
KM12 = system: KM12
T47D = system: T47D
M14 = system: M14
HOP-62 = system: HOP-62
HL-60 = system: HL-60
CCRF-CEM = system: CCRF-CEM

Measured: GI50

NC(=O)CSc1nc2ccccc2c(=O)n1N
inactive: Malme-3M > 100 µM | K562 > 100 µM | OVCAR-5 > 100 µM | HT-29 > 100 µM | ACHN > 100 µM | Hs-578T > 100 µM | OVCAR-8 > 100 µM | CAKI-1 > 100 µM | MDA-MB-231 > 100 µM | EKVX > 100 µM | SF-539 > 100 µM | MDA-MB-435 > 100 µM | NCI/ADR-RES > 100 µM | KM12 > 100 µM | T47D > 100 µM | M14 > 100 µM

COc1ccc(-n2c(C)nc3ccc(/N=C/c4ccccc4)cc3c2=O)cc1
inactive: Malme-3M > 100 µM | K562 > 100 µM | OVCAR-5 > 100 µM | HT-29 > 100 µM | ACHN > 100 µM | Hs-578T > 100 µM | OVCAR-8 > 100 µM | HOP-62 > 100 µM | CAKI-1 > 100 µM | MDA-MB-231 > 100 µM | EKVX > 100 µM | HL-60 > 100 µM | MDA-MB-435 > 100 µM | NCI/ADR-RES > 100 µM | KM12 > 100 µM | T47D > 100 µM

O=c1[nH]nc(Cc2ccccc2)n1/N=C/c1ccco1
inactive: Malme-3M > 100 µM | K562 > 100 µM | OVCAR-5 80 µM | HT-29 > 100 µM | CCRF-CEM > 100 µM | ACHN > 100 µM | Hs-578T 10 µM | OVCAR-8 > 100 µM | HOP-62 > 100 µM | CAKI-1 > 100 µM | MDA-MB-231 > 100 µM | EKVX > 100 µM | SF-539 > 100 µM | MDA-MB-435 > 100 µM | NCI/ADR-RES > 100 µM | KM12 77.1 µM | T47D > 100 µM | M14 > 100 µM

N=C(N)Nc1ccc(CC(N)C(=O)O)cc1 (stereo not drawn)
inactive: Malme-3M > 12.5 µM | K562 > 12.5 µM | OVCAR-5 > 12.5 µM | HT-29 > 12.5 µM | CCRF-CEM > 12.5 µM | ACHN > 12.5 µM | Hs-578T > 12.5 µM | OVCAR-8 > 12.5 µM | HOP-62 > 12.5 µM | CAKI-1 > 12.5 µM | MDA-MB-231 > 12.5 µM | EKVX > 12.5 µM | HL-60 > 12.5 µM | MDA-MB-435 > 12.5 µM | NCI/ADR-RES > 12.5 µM | KM12 > 12.5 µM | T47D > 12.5 µM | M14 > 12.5 µM

CN(C)c1nc(Cl)c2c(-c3ccccc3)c(-c3ccccc3)oc2n1
inactive: K562 42.1 µM | OVCAR-5 > 100 µM | HT-29 58.7 µM | CCRF-CEM 28.1 µM | ACHN 70 µM | Hs-578T 62.1 µM | OVCAR-8 > 100 µM | CAKI-1 23.2 µM | MDA-MB-231 43 µM | EKVX > 100 µM | HL-60 12.2 µM | SF-539 48 µM | MDA-MB-435 > 100 µM | NCI/ADR-RES 82.4 µM | KM12 > 100 µM | T47D 83 µM | M14 > 100 µM

Oc1ccccc1/C=N/c1ccc(Oc2ccc(Cl)cc2)c(Cl)c1
inactive: Malme-3M 19.5 µM | OVCAR-5 26.1 µM | HT-29 19.5 µM | CCRF-CEM 12.4 µM | ACHN 30.3 µM | Hs-578T 19.7 µM | OVCAR-8 19.9 µM | HOP-62 15.5 µM | CAKI-1 23.2 µM | MDA-MB-231 16.1 µM | EKVX 21.3 µM | HL-60 17.9 µM | SF-539 20.9 µM | MDA-MB-435 28.3 µM | NCI/ADR-RES 19.3 µM | KM12 23.8 µM | T47D 5.97 µM | M14 18.5 µM

C[N+]1(CCN[N+]2(C)CCCCC2)CCc2ccccc2C1 (stereo not drawn)
inactive: Malme-3M > 100 µM | K562 > 100 µM | OVCAR-5 > 100 µM | HT-29 > 100 µM | CCRF-CEM > 100 µM | ACHN > 100 µM | Hs-578T > 100 µM | OVCAR-8 > 100 µM | HOP-62 > 100 µM | CAKI-1 > 100 µM | MDA-MB-231 > 100 µM | EKVX > 100 µM | SF-539 58.3 µM | MDA-MB-435 > 100 µM | NCI/ADR-RES > 100 µM | KM12 > 100 µM | T47D > 100 µM | M14 > 100 µM

O=C1CC(c2cccc(Cl)c2)Oc2ccccc21 (stereo not drawn)
inactive: K562 2.9 µM | HT-29 17.5 µM | CCRF-CEM 10.1 µM | ACHN 16.2 µM | Hs-578T 23.6 µM | OVCAR-8 29.2 µM | HOP-62 17.1 µM | CAKI-1 6.18 µM | MDA-MB-231 34.5 µM | EKVX 14.8 µM | HL-60 11.1 µM | SF-539 18.2 µM | MDA-MB-435 17.4 µM | NCI/ADR-RES 26.2 µM | KM12 15.7 µM | T47D 12.7 µM | M14 18.1 µM
